The supplement of paper PMC10307832

Legend:
Experiment in all cases: relative viability (nuclei count vs DMSO), 5 days (fraction); higher = more cells survive
[1] = compound: CN1CCN(c2ccc3nc(-c4c(N)c5c(F)cccc5[nH]c4=O)[nH]c3c2)CC1 [Dovitinib] + CC(=O)c1c(C)c2cnc(Nc3ccc(N4CCNCC4)cn3)nc2n(C2CCCC2)c1=O [Palbociclib] (partner 0.5 µM)
Procedure, shortened: (§1)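 Relative viability was taken as the ratio of nuclei in treated wells to nuclei in vehicle wells. Lung cancer cell lines in 1536-well plates received compounds by pin tool one day after seeding, either one drug alone or a fixed anchor-drug dose plus five library-drug doses (not always all listed) in √10 steps. Nuclei were counted on 4× images after 5 days of treatment, and values are medians of duplicate plates.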

[2] = compound: CN1CCN(c2ccc3nc(-c4c(N)c5c(F)cccc5[nH]c4=O)[nH]c3c2)CC1 [Dovitinib] + CCNC(=O)c1noc(-c2cc(C(C)C)c(O)cc2O)c1-c1ccc(CN2CCOCC2)cc1 [Luminespib] (partner 0.01 µM)
Procedure, shortened: as §1

[3] = compound: CN1CCN(c2ccc3nc(-c4c(N)c5c(F)cccc5[nH]c4=O)[nH]c3c2)CC1 [Dovitinib] + COc1cccc2cc(-c3nc([C@H]4CC[C@H](C(=O)O)CC4)n4ncnc(N)c34)[nH]c12 [OSI-027] (partner 0.5 µM)
Procedure, shortened: as §1

[4] = compound: CN1CCN(c2ccc3nc(-c4c(N)c5c(F)cccc5[nH]c4=O)[nH]c3c2)CC1 [Dovitinib] + CS(=O)(=O)N1CCN(Cc2cc3nc(-c4cccc5[nH]ncc45)nc(N4CCOCC4)c3s2)CC1 [Pictilisib] (partner 1 µM)
Procedure, shortened: as §1

Cell Line	relative viability ([1]; first compound 0.02 µM)	relative viability ([1]; first compound 0.06325 µM)	relative viability ([1]; first compound 0.2 µM)	relative viability ([1]; first compound 0.6325 µM)	relative viability ([1]; first compound 2 µM)	relative viability ([2]; first compound 0.02 µM)	relative viability ([2]; first compound 0.06325 µM)	relative viability ([2]; first compound 0.2 µM)	relative viability ([2]; first compound 0.6325 µM)	relative viability ([2]; first compound 2 µM)	relative viability ([3]; first compound 0.02 µM)	relative viability ([3]; first compound 0.06325 µM)	relative viability ([3]; first compound 0.2 µM)	relative viability ([3]; first compound 0.6325 µM)	relative viability ([3]; first compound 2 µM)	relative viability ([4]; first compound 0.02 µM)	relative viability ([4]; first compound 0.06325 µM)	relative viability ([4]; first compound 0.2 µM)	relative viability ([4]; first compound 0.6325 µM)	relative viability ([4]; first compound 2 µM)
LCLC-97TM1	0.252	0.26	0.236	0.185	0.209	0.953	0.746	0.831	0.801	0.701	0.77	0.486	0.561	0.59	0.544	0.361	0.135	0.215	0.205	0.207
HARA	0.29	0.234	0.311	0.254	0.258	0.708	0.682	0.595	0.603	0.763	0.628	0.438	0.456	0.538	0.474	0.372	0.259	0.367	0.398	0.417
HCC-78	0.437	0.468	0.511	0.54	0.522						0.384	0.544	0.373	0.403	0.388	0.206		0.24	0.272	0.213
NCI-H1666	0.698	0.657	0.677	0.625	0.669	1.02	0.991	1.07	0.997	0.972	0.931	0.882	0.838	0.875	0.909	0.607	0.533	0.548	0.322	0.375
NCI-H2347	0.454	0.446	0.462	0.474	0.409	0.426	0.442	0.661	0.357	0.255	0.568	0.265	0.471	0.545	0.529	0.888	0.676	0.947	0.895	0.677
NCI-H838	0.231	0.209	0.217	0.217	0.228	0.277	0.307	0.349	0.25	0.289	0.324	0.41	0.385	0.37	0.471	0.458	0.431	0.499	0.466	0.503
NCI-H2023	0.357	0.359	0.388	0.345	0.359	0.853	0.627	0.809	0.897	0.833	0.429	0.404	0.476	0.394	0.362	0.216	0.206	0.236	0.261	0.212
201T	0.366	0.379	0.341	0.371	0.367	0.924	1.04	1.02	1.09	1.01	0.704	0.747	0.748	0.898	0.724	0.725	0.692		0.702	0.658
NCI-H1915	0.512	0.533	0.537	0.488	0.553	0.717	0.897	0.884	0.775	0.781	0.559	0.635	0.621	0.602	0.647	0.877	0.893	0.912	0.891	0.961
NCI-H2009	0.203	0.202	0.291	0.353	0.244	0.974	1.11	0.981	0.973	1.13	0.546	0.621	0.642	0.638	0.611	0.781	0.74	0.795	0.854	0.725
BEN	0.477	0.46	0.456	0.478	0.492	0.258	0.458	0.432	0.512	0.203	0.319	0.302	0.342	0.312	0.287	0.565	0.548	0.553	0.661	0.493
PC-14	0.461	0.622	0.572	0.467	0.537	0.147	0.158	0.15	0.17	0.16	0.827	0.804	1.02	0.751	0.933	0.632	0.72	0.685	0.691	0.543
SK-MES-1	0.35	0.378	0.306	0.37	0.374	0.653	0.949	0.785	0.661	0.887	0.56	0.591	0.605	0.601	0.612	0.354	0.359	0.349	0.36	0.327
NCI-H727	0.667	0.62	0.669	0.671	0.668	0.272	0.373	0.285	0.322	0.373	0.778	0.434	0.589	0.653	0.548	0.456	0.379	0.423	0.427	0.395
NCI-H1355	0.416	0.41	0.465	0.397	0.415	0.716	0.781	0.829	0.827	0.68	0.443	0.386	0.392	0.48	0.388	0.459	0.305	0.478	0.479	0.48
NCI-H1975	0.657	0.674	0.58	0.645	0.598	0.991	0.19	0.422	0.146	0.217	0.749	0.735	0.732	0.664	0.666	0.299	0.271	0.325	0.324	0.274
LK-2	0.648	0.734	0.676	0.646	0.854	0.191	0.162	0.179	0.219	0.182	0.187	0.192	0.202	0.252	0.173	0.525	0.546	0.475	0.516	0.57
NCI-H661	0.414	0.453	0.429	0.426	0.432	0.87	0.93	0.924	0.936	0.975	0.689	0.706	0.753	0.732	0.729	0.427	0.465	0.455	0.427	0.359
HCC-366	0.377	0.364	0.372	0.396	0.402						0.807	0.829	0.848	0.914	0.791	0.172	0.123	0.159	0.137	0.186

Cell Line	relative viability ([1]; first compound 0.02 µM)	relative viability ([1]; first compound 0.06325 µM)	relative viability ([1]; first compound 0.2 µM)	relative viability ([1]; first compound 0.6325 µM)	relative viability ([1]; first compound 2 µM)	relative viability ([2]; first compound 0.02 µM)	relative viability ([2]; first compound 0.06325 µM)	relative viability ([2]; first compound 0.2 µM)	relative viability ([2]; first compound 0.6325 µM)	relative viability ([2]; first compound 2 µM)	relative viability ([3]; first compound 0.02 µM)	relative viability ([3]; first compound 0.06325 µM)	relative viability ([3]; first compound 0.2 µM)	relative viability ([3]; first compound 0.6325 µM)	relative viability ([3]; first compound 2 µM)	relative viability ([4]; first compound 0.02 µM)	relative viability ([4]; first compound 0.06325 µM)	relative viability ([4]; first compound 0.2 µM)	relative viability ([4]; first compound 0.6325 µM)	relative viability ([4]; first compound 2 µM)
HOP-62	0.355	0.456	0.465	0.396	0.499	0.888	1.03	0.868	0.89	0.931	0.794	0.79	0.866	0.925	0.855	0.578	0.753	0.605	0.665	0.632
NCI-H1944	0.305	0.356	0.323	0.346	0.308	0.643	0.773	0.757	0.704	0.715	0.426	0.383	0.398	0.39	0.431	0.325	0.332	0.335	0.33	0.36
SW 1573	0.402	0.421	0.435	0.348	0.386	0.264	0.214	0.275	0.525	0.29	0.715	0.641	0.676	0.455	0.725	0.487	0.545	0.483	0.382	0.512
LU99A	0.388	0.37	0.387	0.423	0.406	0.243	0.221	0.27	0.282	0.254	0.257	0.283	0.327	0.3	0.316	0.312	0.323	0.336	0.359	0.34
NCI-H647	0.337	0.427	0.378	0.402	0.431	0.16	0.192	0.127	0.183	0.179	0.608	0.758	0.817	0.657	0.802	0.285	0.413	0.457	0.414	0.419
A-427	0.502	0.517	0.553	0.521	0.587	0.843	1.02	1.14	0.897	0.747	0.524	0.432	0.455	0.452	0.399	0.724	0.625	0.573	0.585	0.774
COR-L 105	0.434	0.421	0.46	0.419	0.427	0.77	0.84	0.78	0.82	0.81	0.722	0.637	0.649	0.659	0.784	0.362	0.356	0.365	0.439	0.529
NCI-H441	0.22	0.195	0.212	0.221	0.194	0.351	0.382	0.286	0.32	0.342	0.639	0.565	0.682	0.61	0.644	0.521	0.528	0.517	0.477	0.47
NCI-H2126	0.363	0.357	0.354	0.339	0.327	0.937	0.864	1.09	0.877	0.83	0.74		0.855	0.699	0.638	0.476	0.462	0.463	0.559	0.504
EBC-1																0.422	0.35	0.336	0.342	0.453
NCI-H1648	0.325	0.287	0.235	0.247	0.255						0.236	0.251	0.291	0.307	0.252					
SW 900	0.588	0.632	0.615	0.611	0.571	0.181	0.173	0.176	0.164	0.149	0.465	0.556	0.616	0.54	0.62					
NCI-H596						1.12	1.11	0.942	1.16	0.835	0.644	0.776	0.669	0.808	0.779	0.372	0.394	0.376	0.387	0.428
NCI-H1563						0.567	0.481	0.615	0.509	0.543	0.825	0.797	0.827	0.758	0.785	0.631	0.629	0.685	0.635	0.672
NCI-H1299																0.897	0.8	0.69	0.626	0.789
NCI-H522	1.07	1.05	0.972	1.19	1.06	1.15	0.989	1.01	1.19	1.07	0.685	0.721	0.654	0.768	0.686					
A549																0.412	0.474	0.541	0.488	0.463
IA-LM																0.412	0.333	0.481	0.279	0.337
Calu-6																0.931	0.885	0.913	0.893	1
